Assay results as given in ChEMBL document CHEMBL1201862, “PubChem BioAssay data set” (2004).
Activity calls are given as the source filed them.

How the values were obtained:
Streptokinase A = target: T1, Streptokinase A (Streptococcus pyogenes serotype M1, UniProt P10520); experiment: S. pyogenes streptokinase expression inhibitors, potency, dose response, plasminogen activation absorbance, OD405 (AID 1914); type: functional, Streptococcus pyogenes M1 GAS;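 further: secreted streptokinase activity via plasminogen activation per viability signal from cell pellet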
T1 sequence (P10520 whole entry): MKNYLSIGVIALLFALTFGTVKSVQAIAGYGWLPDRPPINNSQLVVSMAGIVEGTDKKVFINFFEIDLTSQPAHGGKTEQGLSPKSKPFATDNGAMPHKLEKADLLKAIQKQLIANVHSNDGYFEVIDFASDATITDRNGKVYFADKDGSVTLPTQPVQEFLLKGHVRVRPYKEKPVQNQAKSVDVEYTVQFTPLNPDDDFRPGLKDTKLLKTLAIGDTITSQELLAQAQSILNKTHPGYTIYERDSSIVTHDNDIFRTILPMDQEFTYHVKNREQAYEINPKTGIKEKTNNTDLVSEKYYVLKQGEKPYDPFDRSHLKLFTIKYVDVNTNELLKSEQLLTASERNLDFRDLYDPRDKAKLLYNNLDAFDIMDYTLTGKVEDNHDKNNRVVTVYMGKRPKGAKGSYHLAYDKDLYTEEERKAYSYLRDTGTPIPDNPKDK

INS1 = experiment: beta cell apoptosis inhibitors, cytokine rescue, dose response, luminescence, retest (AID 449756); type: functional, cell-based; conditions: Rattus norvegicus;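 further: cell death triggered by IL-1 beta plus TNF-alpha plus IFN-gamma mixture; protective hits raise ATP signal compared with cytokine alone wells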
Nonstructural protein 1 = Nonstructural protein 1 (Influenza A virus, UniProt Q194T2); type: functional, Influenza A virus (A/California/07/2009(H1N1))
Sequence of Nonstructural protein 1 (Q194T2 whole entry): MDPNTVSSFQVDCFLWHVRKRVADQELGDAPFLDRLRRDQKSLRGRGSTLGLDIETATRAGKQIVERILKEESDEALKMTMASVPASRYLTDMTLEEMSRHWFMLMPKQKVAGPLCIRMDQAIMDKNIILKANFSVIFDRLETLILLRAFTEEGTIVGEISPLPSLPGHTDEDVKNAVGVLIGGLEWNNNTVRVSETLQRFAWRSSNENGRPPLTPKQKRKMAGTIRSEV

Streptococcus = experiment: Group A Streptococcus viability loss, dose response, counter-screen for streptokinase expression inhibitor project, luminescence, BacTiterGlo (AID 1915); type: functional, organism-based;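 further: potency for reduction of bacterial viability or growth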
[1] = test system: Streptococcus sp. 'group A'; experiment: growth inhibition of control SK(-) GAS strain, dose response, counter-screen for streptokinase expression inhibitor project, luminescence, kanamycin, BacTiterGlo, confirmation (AID 1900); type: functional, organism-based
[2] = target: T2, Intestinal-type alkaline phosphatase (Mus musculus, UniProt P24822); experiment: PubChem AID 488785; type: functional
T2 sequence (P24822 whole entry): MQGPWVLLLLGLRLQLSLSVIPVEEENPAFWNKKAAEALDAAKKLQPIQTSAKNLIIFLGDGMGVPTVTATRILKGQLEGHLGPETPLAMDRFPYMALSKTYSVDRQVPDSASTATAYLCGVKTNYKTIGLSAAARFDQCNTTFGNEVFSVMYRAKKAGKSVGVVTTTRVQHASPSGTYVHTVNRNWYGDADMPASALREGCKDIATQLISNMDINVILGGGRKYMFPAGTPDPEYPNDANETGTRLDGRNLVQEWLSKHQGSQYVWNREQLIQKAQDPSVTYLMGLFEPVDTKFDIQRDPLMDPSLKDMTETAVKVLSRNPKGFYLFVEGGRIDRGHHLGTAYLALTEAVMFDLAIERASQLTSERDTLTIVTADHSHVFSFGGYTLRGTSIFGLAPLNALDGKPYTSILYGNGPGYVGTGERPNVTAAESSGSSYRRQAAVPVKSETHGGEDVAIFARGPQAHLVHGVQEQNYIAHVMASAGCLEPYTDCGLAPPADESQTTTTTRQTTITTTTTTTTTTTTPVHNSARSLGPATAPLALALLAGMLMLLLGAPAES

[3] = target: T2, Intestinal-type alkaline phosphatase; experiment: PubChem AID 488874; type: functional
[4] = target: T3, Intestinal-type alkaline phosphatase (Homo sapiens, UniProt P09923); experiment: human IAP activators, dose response, biochemical, luminescent, uHTS hits, set 2 (AID 488817); type: functional;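 further: potency of activators that raise enzyme activity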
T3 sequence (P09923 whole entry): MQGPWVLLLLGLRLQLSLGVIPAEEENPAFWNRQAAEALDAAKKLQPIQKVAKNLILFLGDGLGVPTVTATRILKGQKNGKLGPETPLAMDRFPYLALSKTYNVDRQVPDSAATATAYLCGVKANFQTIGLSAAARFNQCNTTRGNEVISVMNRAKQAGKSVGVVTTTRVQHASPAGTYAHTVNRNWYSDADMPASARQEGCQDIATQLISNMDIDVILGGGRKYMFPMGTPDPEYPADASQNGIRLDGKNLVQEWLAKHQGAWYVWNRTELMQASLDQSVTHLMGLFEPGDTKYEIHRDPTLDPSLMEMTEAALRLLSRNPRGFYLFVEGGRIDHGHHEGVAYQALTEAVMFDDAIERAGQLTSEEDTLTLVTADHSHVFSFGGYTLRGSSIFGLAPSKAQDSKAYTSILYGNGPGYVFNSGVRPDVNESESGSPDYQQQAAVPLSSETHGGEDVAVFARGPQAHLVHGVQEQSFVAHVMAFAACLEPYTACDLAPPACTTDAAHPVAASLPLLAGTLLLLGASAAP

[5] = target: T4, Alkaline phosphatase, tissue-nonspecific isozyme (Homo sapiens, UniProt P05186); experiment: TNAP enzyme activators, dose response, selectivity assay for human IAP activator project, biochemical, TNAP isozyme, human IAP uHTS hits (AID 488886); type: functional;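 further: potency of compounds raising TNAP activity as a selectivity check on IAP activators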
T4 sequence (P05186 whole entry): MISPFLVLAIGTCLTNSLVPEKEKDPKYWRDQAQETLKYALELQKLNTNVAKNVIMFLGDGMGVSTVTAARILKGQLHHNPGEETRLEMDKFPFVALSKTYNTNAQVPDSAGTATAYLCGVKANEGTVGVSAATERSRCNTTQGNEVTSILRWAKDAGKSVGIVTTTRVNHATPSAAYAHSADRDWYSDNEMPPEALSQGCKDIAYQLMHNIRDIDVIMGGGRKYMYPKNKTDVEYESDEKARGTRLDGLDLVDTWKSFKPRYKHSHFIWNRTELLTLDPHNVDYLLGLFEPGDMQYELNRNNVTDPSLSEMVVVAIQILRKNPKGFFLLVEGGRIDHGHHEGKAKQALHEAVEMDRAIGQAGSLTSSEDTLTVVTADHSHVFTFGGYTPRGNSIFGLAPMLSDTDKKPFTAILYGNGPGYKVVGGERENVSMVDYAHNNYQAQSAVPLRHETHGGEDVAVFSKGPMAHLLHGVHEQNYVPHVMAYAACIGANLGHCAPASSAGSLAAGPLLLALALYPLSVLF

[6] = target: Eukaryotic translation initiation factor 4H (Homo sapiens, UniProt Q15056); experiment: human eIF4H binding inhibitors, primary screen, translation initiation inhibitor project, biochemical, uHTS, fluorescence polarization (AID 2012)
[7] = target: T3, Intestinal-type alkaline phosphatase; experiment: inhibition of human intestinal alkaline phosphatase – biochemical, dose response (AID 488876); type: functional
[8] = target: T3, Intestinal-type alkaline phosphatase; experiment: human intestinal alkaline phosphatase activators, dose response, biochemical, luminescence, uHTS hits (AID 463120); type: functional
[9] = target: T4, Alkaline phosphatase, tissue-nonspecific isozyme; experiment: TNAP enzyme inhibition by screening hits, dose response, selectivity assay for mouse IAP inhibitor project, biochemical, human TNAP, uHTS hits (AID 488906); type: functional
[10] = target: Polyadenylate-binding protein 1 (Homo sapiens, UniProt P11940); experiment: PABP poly(A) RNA binding inhibitors, primary screen, biochemical, fluorescence polarization, uHTS (AID 2014)
Sequence of Polyadenylate-binding protein 1 (P11940 whole entry): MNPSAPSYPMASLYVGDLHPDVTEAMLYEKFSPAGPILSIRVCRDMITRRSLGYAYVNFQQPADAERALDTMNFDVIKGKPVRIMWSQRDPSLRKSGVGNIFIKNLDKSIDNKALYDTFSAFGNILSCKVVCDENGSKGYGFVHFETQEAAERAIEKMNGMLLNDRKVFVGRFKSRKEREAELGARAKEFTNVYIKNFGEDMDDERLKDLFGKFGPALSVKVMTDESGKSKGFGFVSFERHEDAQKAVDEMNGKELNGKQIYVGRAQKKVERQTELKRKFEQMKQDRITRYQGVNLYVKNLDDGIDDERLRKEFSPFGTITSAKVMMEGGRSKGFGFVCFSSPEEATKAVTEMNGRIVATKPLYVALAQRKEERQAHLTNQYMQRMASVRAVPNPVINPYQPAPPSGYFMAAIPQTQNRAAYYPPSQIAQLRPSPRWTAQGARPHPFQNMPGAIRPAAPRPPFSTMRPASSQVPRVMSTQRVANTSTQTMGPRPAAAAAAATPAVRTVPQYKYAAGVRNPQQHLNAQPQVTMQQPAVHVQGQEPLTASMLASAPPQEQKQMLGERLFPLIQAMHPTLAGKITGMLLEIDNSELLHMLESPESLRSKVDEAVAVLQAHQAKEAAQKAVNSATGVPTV

Cc1onc(-c2ccccc2)c1C(=O)NC(=S)NNC(=O)c1ccc(O)cc1O
> 150 µM (not active): EC50 (Streptokinase A)
active: AC50 (INS1) 3.95 µM | IC50 (Nonstructural protein 1) 11.4 µM | EC50 (Streptococcus) 25.3 µM | EC50 [1] 6.86 µM

O=C(N/N=C/c1ccc(O)cc1O)C(=O)N/N=C/c1ccc(O)cc1O
active: IC50 [2] 0.604 µM | IC50 [3] 5.04 µM | EC50 [4] 4.56 µM | IC50 [6] 2.31 µM | IC50 [7] 51.3 µM | EC50 [8] 7.62 µM | IC50 [9] 38.1 µM
inactive: EC50 [5] > 100 µM | IC50 [10] > 100 µM
